In assay [1] the target is T1, Lysosomal acid glucosylceramidase (Homo sapiens, UniProt P04062).
T1 sequence (P04062 whole entry): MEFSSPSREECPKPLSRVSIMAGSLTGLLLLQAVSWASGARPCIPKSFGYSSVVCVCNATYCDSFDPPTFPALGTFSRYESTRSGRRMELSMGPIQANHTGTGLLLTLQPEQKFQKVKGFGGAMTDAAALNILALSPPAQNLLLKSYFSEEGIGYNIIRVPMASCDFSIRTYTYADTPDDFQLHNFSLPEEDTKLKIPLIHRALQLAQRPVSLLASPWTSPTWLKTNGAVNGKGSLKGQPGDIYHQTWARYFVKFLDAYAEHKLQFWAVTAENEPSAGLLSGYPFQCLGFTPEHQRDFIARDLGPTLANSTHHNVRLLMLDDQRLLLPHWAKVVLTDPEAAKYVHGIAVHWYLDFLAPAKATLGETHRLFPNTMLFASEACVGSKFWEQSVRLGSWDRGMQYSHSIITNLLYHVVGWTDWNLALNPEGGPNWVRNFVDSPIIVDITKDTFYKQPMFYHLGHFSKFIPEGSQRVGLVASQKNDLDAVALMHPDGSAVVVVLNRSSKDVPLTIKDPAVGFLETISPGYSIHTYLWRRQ
Nature of the assay: (§1) Inhibition of glucocerebrosidase.

Assay [2] deals with T2, Lysosomal acid glucosylceramidase (Homo sapiens) (UniProt P04062).
T2 sequence (whole entry): T1 sequence (P04062 whole entry)
The assay is described as §1.

In assay [3] the target is Alpha-galactosidase (Coffea arabica) (UniProt Q5DUH8). The assay is described as follows: Inhibition of coffee bean alpha galactosidase upto 77 uM.
Sequence of Alpha-galactosidase (Coffea arabica) (Q5DUH8 as listed by the source): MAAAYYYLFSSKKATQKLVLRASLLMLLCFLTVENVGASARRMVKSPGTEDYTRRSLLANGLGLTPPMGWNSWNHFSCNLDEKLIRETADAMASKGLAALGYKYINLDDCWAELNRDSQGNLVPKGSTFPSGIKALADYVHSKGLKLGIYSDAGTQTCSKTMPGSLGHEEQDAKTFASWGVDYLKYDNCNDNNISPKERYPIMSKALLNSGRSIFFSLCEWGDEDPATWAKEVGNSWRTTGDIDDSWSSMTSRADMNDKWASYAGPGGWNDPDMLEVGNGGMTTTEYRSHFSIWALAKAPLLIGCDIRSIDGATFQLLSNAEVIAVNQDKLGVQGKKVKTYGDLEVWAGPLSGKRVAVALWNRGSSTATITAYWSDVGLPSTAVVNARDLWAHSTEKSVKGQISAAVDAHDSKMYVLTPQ
Assay [4] concerns the target T3, Beta-hexosaminidase subunit alpha (Bos taurus) (UniProt Q0V8R6).
T3 sequence (whole entry): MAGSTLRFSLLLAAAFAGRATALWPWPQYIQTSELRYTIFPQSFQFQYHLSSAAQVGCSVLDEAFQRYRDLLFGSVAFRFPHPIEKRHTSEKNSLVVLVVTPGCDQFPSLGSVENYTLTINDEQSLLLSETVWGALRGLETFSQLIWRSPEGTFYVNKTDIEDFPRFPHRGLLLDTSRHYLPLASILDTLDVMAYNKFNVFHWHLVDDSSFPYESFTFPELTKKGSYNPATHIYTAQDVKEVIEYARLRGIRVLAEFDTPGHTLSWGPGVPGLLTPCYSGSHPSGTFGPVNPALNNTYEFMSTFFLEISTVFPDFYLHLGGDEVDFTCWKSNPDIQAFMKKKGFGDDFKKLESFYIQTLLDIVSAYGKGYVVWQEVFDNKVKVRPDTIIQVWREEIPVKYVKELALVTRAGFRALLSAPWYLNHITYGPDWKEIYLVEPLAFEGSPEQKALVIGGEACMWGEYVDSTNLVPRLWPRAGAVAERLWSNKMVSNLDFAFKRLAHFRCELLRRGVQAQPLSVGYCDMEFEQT
Nature of the assay: Inhibition of bovine beta hexosaminidase upto 77 uM.

Another assay relates to Oryza sativa. Nature of the assay: Inhibition of rice alpha glucosidase upto 77 uM.

pIC50: −log10 of the molar value. Activity calls are given as the source filed them. The calls are words filed in the database; no cut-off is given here.

As a reminder, the pIC50 is the negative decadic logarithm of the IC50, by convention in mol/L.

`COc1ccc(Nc2nc(NCCO)nc(N3CCCC3)n2)cc1` showed a pIC50 in assay [1] of 5.06. The compound `COc1ccc(C(F)(F)F)cc1Nc1nc(NCCO)nc(N2CCCC2)n1` showed a pIC50 in assay [1] of 5.58. As for `COC(=O)CNc1nc(Nc2ccccc2OC)nc(N2CCCC2)n1`, in assay [2], the outcome was inactive.

The compound `OCCNc1nc(Nc2ccccc2Cl)nc(N2CCCC2)n1` had a pIC50 in assay [1] of 4.54. Turning to `CCN(CC)c1nc(NCCO)nc(Nc2cc(Cl)ccc2OC)n1`, the outcome in assay [2] was inactive.

On to `COc1ccccc1Nc1nc(NCCNC(C)=O)nc(N2CCCC2)n1`, for which the outcome in assay [2] was inactive.

As for `COc1ccc(Cl)cc1Nc1nc(N(CCO)CCO)nc(N2CCCC2)n1`, the result in assay [2] was inactive.

In assay [1], `COc1ccccc1Nc1nc(NCCO)nc(NCc2ccccc2)n1` had a pIC50 of 4.73. For the compound `COc1ccc(Cl)cc1Nc1nc(NCc2ccccc2)nc(N2CCCC2)n1`, in assay [2], the outcome was inactive. As for `OCCNc1nc(Nc2cc(-c3ccccc3)ccc2O)nc(N2CCCC2)n1`, in assay [1], the negative logarithm of the IC50 (pIC50) was 6.43. As to `O=[N+]([O-])c1ccccc1Nc1nc(NCCO)nc(N2CCCC2)n1`, the result in assay [2] was inactive.

For `Cc1cccc(Nc2nc(NCCO)nc(N3CCCC3)n2)c1`, the pIC50 in assay [1] is 5.21. On the same count and under the same terms, for `CCOc1ccc(Cl)cc1Nc1nc(NCCO)nc(N2CCCC2)n1` the value was 6.02. As to `CC(=O)Nc1ccccc1Nc1nc(NCCO)nc(N2CCCC2)n1`, the result in assay [2] was inactive.

With `COc1ccc(Cl)cc1Nc1nc(NCCO)nc(N2CCCCCC2)n1`, the outcome in assay [2] was inactive. `OCCNc1nc(Nc2ccccc2OCc2ccccc2)nc(N2CCCC2)n1`: in assay [1], the pIC50 is 4.50. The same measure, in the same setting: for `COc1ccc(OC)c(Nc2nc(NCCO)nc(N3CCCC3)n2)c1` the value was 5.82. Consider `COc1ccccc1Nc1nc(NCC(O)Cc2ccccc2)nc(N2CCCC2)n1` (configuration not stated), for which the negative logarithm of the IC50 (pIC50) in assay [1] was 5.17.

In turn, `COc1ccccc1Nc1nc(NCCO)nc(N2CCCC2)n1` had a negative logarithm of the IC50 (pIC50) in assay [1] of 5.97. Same read-out and setting: for `CCCCNc1nc(NCCO)nc(Nc2ccccc2OC)n1` the value was 5.21. In assay [1], `CC(C)(C)Oc1ccc(Cl)cc1Nc1nc(NCCO)nc(N2CCCC2)n1` had a pIC50 of 5.98.

In assay [1], `CCOc1ccccc1Nc1nc(NCCO)nc(N2CCCC2)n1` gave a pIC50 of 6.11. `OCCNc1nc(Nc2ccccc2)nc(N2CCCC2)n1` had a pIC50 in assay [1] of 4.78.

For the compound `Cc1ccccc1Nc1nc(NCCO)nc(N2CCCC2)n1`, the pIC50 in assay [1] is 5.40. Still for that read-out and setting: the figure for `COc1ccc(-c2ccccc2)cc1Nc1nc(NCCO)nc(N2CCCC2)n1` is 5.65; for `CCCCNc1nc(Nc2cc(Cl)ccc2OC)nc(N2CCCC2)n1` it is 5.11; for `OCCNc1nc(Nc2ccccc2Oc2ccccc2)nc(N2CCCC2)n1` it is 4.66.

For the compound `COc1ccc(Cl)cc1Nc1nc(N)nc(N2CCCC2)n1`, the outcome in assay [2] was inactive. In assay [1], `COc1ccc(Nc2nc(NCCO)nc(N3CCCC3)n2)c(OC)c1` showed a pIC50 of 5.31.

In assay [1], `OCCNc1nc(Nc2ccccc2OC(F)(F)F)nc(N2CCCC2)n1` gave a negative-log IC50 (pIC50) of 5.48. On to `COCCNc1nc(Nc2cc(Cl)ccc2OC)nc(N2CCCC2)n1`, for which, in assay [2], the result was inactive. Same read-out and setting: the entry for `NC(=O)c1ccccc1Nc1nc(NCCO)nc(N2CCCC2)n1` is “inactive”. In assay [1], `COc1ccc(Cl)cc1Nc1nc(NCCO)nc(N2CCCCC2)n1` showed a pIC50 of 4.51. For the compound `COc1ccccc1Nc1nc(NCC(N)=O)nc(N2CCCC2)n1`, the outcome in assay [2] was inactive.

On to `OCCNc1nc(Nc2cc(Cl)ccc2O)nc(N2CCCC2)n1`, for which the pIC50 in assay [1] was 6.14. Same read-out and setting: for `COc1ccc(Cl)cc1Nc1nc(NCCO)nc(N2CCOCC2)n1` the value was 4.92. The same measure, in the same setting: the figure for `COc1ccccc1Nc1nc(NCC(C)O)nc(N2CCCC2)n1` (configuration not stated) is 4.68.

In the case of `COc1ccc(Cl)cc1Nc1nc(NCc2ccco2)nc(N2CCCC2)n1`, in assay [2], the outcome was inactive. In assay [1], `COc1ccccc1Nc1nc(NCCO)nc(N2CCC(F)(F)C2)n1` had a pIC50 of 5.11. With `CC(C)(C)Oc1ccccc1Nc1nc(NCCO)nc(N2CCCC2)n1`, the result (in assay [3]; in assay [4]; in the assay with Oryza sativa) was inactive. In addition, in assay [1], the negative logarithm of the IC50 (pIC50) was 6.48. For the compound `COc1ccccc1Nc1nc(NCCCCO)nc(N2CCCC2)n1`, in assay [2], the outcome was inactive. Consider `OCCNc1nc(Nc2ccc(Cl)cc2)nc(N2CCCC2)n1`, for which the negative-log IC50 (pIC50) in assay [1] was 5.20. The same measure, in the same setting: for `OCCNc1nc(Nc2cccc(Cl)c2)nc(N2CCCC2)n1` the value was 5.17; for `OCCNc1nc(Nc2ccccc2O)nc(N2CCCC2)n1`, 5.70.

Regarding `COc1cccc(Nc2nc(NCCO)nc(N3CCCC3)n2)c1`, the pIC50 in assay [1] was 5.08.

Take `CSc1ccccc1Nc1nc(NCCO)nc(N2CCCC2)n1`: the pIC50 in assay [1] is 5.62. The same measure, in the same setting: for `COc1ccccc1Nc1nc(NCCO)nc(N2CCC2)n1` the value was 5.64.

On to `Cc1ccc(Nc2nc(NCCO)nc(N3CCCC3)n2)cc1`, for which the pIC50 in assay [1] is 5.00. Same read-out and setting: the figure for `CC(C)Oc1ccc(Cl)cc1Nc1nc(NCCO)nc(N2CCCC2)n1` is 5.46.
